Measurements published in patent US12083355B1, “Preparation of photodynamic therapy tablet and method for construction and application of anti-tumor model for enhanced cancer treatment” (Sichuan Cancer Hospital, priority 2023, dated 2024).

Assays:
Assay in all cases: CCK-8 cell viability assay, anti-tumor model with wireless self-powered photodynamic tablet
Format in all cases: cell-based
Conditions in all cases: 10 μM IKE, PDT groups: 8 μM Ce6 6 h, 20 min 660 nm light, CCK-8 after 24 hours
[1] = tested on: human lung cancer cells A549
Method: (§1) This embodiment provides a comprehensive account of constructing an anti-tumor model utilizing the wireless self-powered photodynamic tablet (8), using human lung cancer cells A549 and H1299, as well as mouse lung cancer cells LLC. The experimental procedure involved seeding 8,000 cells per well in a 96-well plate and allowing them to adhere for 24 hours. The cells were divided into four groups: control group (Ctrl), ferroptosis inducer (IKE) group, photodynamic therapy (PDT) group, and combined treatment of IKE and PDT (IKE+PDT) group. The culture medium was then replaced accordingly: the PDT and IKE+PDT groups received 100 μL of serum-free medium containing 8 μM photosensitizer Ce6, while the Ctrl and IKE groups were replaced with serum-free medium. Following this, the cells were incubated for 6 hours under light avoidance conditions (i.e., in the substantial absence of visible light). Subsequently, the culture medium was replaced again: the IKE and IKE+PDT groups received fresh complete medium containing 10 μM IKE, while the Ctrl and PDT groups received complete medium. The PDT and IKE+PDT groups underwent 20 minutes of photodynamic therapy (e.g., with 660 nm light from the photodynamic tablet). After 24 hours of incubation, a cell viability assay was conducted using the CCK-8 reagent kit. Each experiment was repeated three times, and the data were subjected to statistical analysis.

[2] = tested on: mouse lung cancer cells LLC
Method: as §1

[3] = tested on: human lung cancer cells H1299
Method: as §1

For `CC(C)Oc1ccc(C(=O)Cn2ccnc2)cc1-n1c(CN2CCN(C(=O)COc3ccc(Cl)cc3)CC2)nc2ccccc2c1=O` [IKE], the “decrease in cell viability compared to the control group” value (from here on “decrease in cell viability”) [1] was 22.4%, the “decrease in cell viability” value [2] was 30.3% and the “decrease in cell viability” value [3] was 26.0%.
